The subject of data set [1] is blood markers of oxidative and inflammatory damage. Kind of data set: IOD blood marker, DHA and carotenoid-SFA formulations, trial for 4 weeks. It counts as in vivo, human. The source says: (§1) Since DHA itself has antioxidant and anti-inflammatory properties it was important to assess whether its formulation with carotenoids and SFA would change them. Comparison of the effects of DHA and its new formulations on blood markers of oxidative and inflammatory damage is presented in Table 7.

Another data set deals with LDL. Kind of data set: LDL-Px blood marker, DHA and carotenoid-SFA formulations, trial for 4 weeks. In kind it is in vivo, human.
Description: as §1
It is worth pointing out that the real synergetic effect may be even more profound, because in both of those carotenoid-SFA formulations only half of the dose of the control DHA was used.

The subject of data set [2] is liver lipid metabolism. Kind of data set: Serum LDL cholesterol, DHA and carotenoid-SFA formulations, trial for 4 weeks. In kind it is in vivo, human.
For data set [3], the system named is liver lipid metabolism. The data set can be described thus: Serum triglycerides, DHA and carotenoid-SFA formulations, trial for 4 weeks. It counts as in vivo, human.
The conditions of data set [4]: publicly available trans-resveratrol formulations; cited from earlier work.
The nature of data set [5]: Serum DHA pharmacokinetics after 4 weeks of supplementation with DHA formulations. The settings on record: human, in vivo.
The nature of data set [6]: Serum EPA pharmacokinetics after 4 weeks of supplementation with DHA formulations. The settings on record: human, in vivo.

For the compound `CC(C)=CCC/C(C)=C/C=C/C(C)=C/C=C/C(C)=C/C=C/C=C(C)/C=C/C=C(C)/C=C/C=C(\C)CCC=C(C)C` [Lycopene 7 mg, Lycopene], the “IOD in MDA” value in data set [1] (0 w) came to 111 ± 12 µM. For the same compound, in data set [1] (4 w), the “IOD in MDA” value came to 79 ± 9 µM; the “IOD, % of baseline” value is listed as 71%; the “Δ IOD vs 0 w” value is given as “Δ = −32 μM”. For the same compound, the LDL-Px in the data set with LDL (0 w) amounted to 133 ± 19 ELISA × 10^3. In the data set on LDL (4 w), the LDL-Px is 115 ± 14 ELISA × 10^3; the “LDL-Px, % of baseline” value stood at 86%; the “Δ LDL-Px vs 0 w” value was “Δ = −18 ELISA × 10^3”. The LDL cholesterol with liver lipid metabolism [2] (0 w) stood at 158 ± 17 mg/dL. In the data set on liver lipid metabolism [2] (4 w), the LDL cholesterol amounted to 154 ± 16 mg/dL and the “Δ LDL cholesterol vs 0 w” value was “Δ = −4 mg/dL”. Besides, in the data set on liver lipid metabolism [2] (4 weeks), the “Effect on serum LDL level” value is recorded as “did not affect level of LDL”. Besides, the Triglycerides in the data set on liver lipid metabolism [3] (0 w) came out at 155 ± 12 mg/dL. In addition, in the data set with liver lipid metabolism [3] (4 w), the Triglycerides is 150 ± 13 mg/dL; the “Triglycerides, % of baseline” value turned out to be 97%; the “Δ Triglycerides vs 0 w” value was “Δ = −5 mg/dL”. Moreover, in the data set on liver lipid metabolism [3] (end of the 4-week trial), the “Change in triglyceride concentrations” value was “no significant change”.

`Oc1ccc(/C=C/c2cc(O)cc(O)c2)cc1` [trans-resveratrol]: the “Fraction bioavailable after oral consumption” value in data set [4] was 5%.

As to `CC/C=C\C/C=C\C/C=C\C/C=C\C/C=C\C/C=C\CCC(=O)O` [DHA 500 mg, docosahexaenoic acid], the “IOD in MDA” value in data set [1] (0 w) came out at 165 ± 18 µM. For the same compound, in data set [1] (4 w), the “IOD in MDA” value is 107 ± 11 µM; the “IOD, % of baseline” value was determined as 65%; the “Δ IOD vs 0 w” value is recorded as “Δ = −58 μM”. Besides, in data set [5], the concentration at 0 weeks is 106 ± 11 µg/mL, the concentration at 2 weeks worked out at 134 ± 12 µg/mL and the concentration at 4 weeks worked out at 108 ± 12 µg/mL. In addition, in data set [5] (2 weeks), the “Increase in serum DHA” value is 26% and the “Δ serum DHA vs 0 w” value is listed as “Δ = +28 μg/ml”. For the same compound, the “Δ serum DHA vs 0 w” value in data set [5] (4 weeks) was “Δ = +2 μg/ml”. In addition, the LDL-Px in the data set on LDL (0 w) amounted to 700 ± 76 ELISA × 10^3. Further, in the data set on LDL (4 w), the LDL-Px came to 265 ± 27 ELISA × 10^3; the “LDL-Px, % of baseline” value worked out at 38%; the “Δ LDL-Px vs 0 w” value is on record as “Δ = −435 ELISA × 10^3”. Besides, the LDL cholesterol with liver lipid metabolism [2] (0 w) amounted to 154 ± 16 mg/dL. For the same compound, in the data set with liver lipid metabolism [2] (4 w), the LDL cholesterol came out at 149 ± 15 mg/dL and the “Δ LDL cholesterol vs 0 w” value is recorded as “Δ = −5 mg/dL”. In addition, the “Combined increase in serum EPA” value in data set [6] was determined as 11.6 µg/mL. Also, in data set [6] (0 weeks), the “Serum EPA” value was found to be 56.5 ± 6.2 µg/mL. Besides, in data set [6] (2 weeks), the “Increase in serum EPA” value is 21%, the “Serum EPA” value was 68.1 ± 7.4 µg/mL and the “Δ serum EPA vs 0 w” value is given as “Δ = +11.6 μg/ml”. Besides, in data set [6] (4 weeks), the “Serum EPA” value worked out at 35.8 ± 5.3 µg/mL. In the data set on liver lipid metabolism [3] (0 w), this compound yielded a Triglycerides of 197 ± 18 mg/dL. Further, in the data set on liver lipid metabolism [3] (4 w), the Triglycerides was determined as 184 ± 17 mg/dL; the “Triglycerides, % of baseline” value was 93%; the “Δ Triglycerides vs 0 w” value is “Δ = −13 mg/dL”. The “Reduction of serum triglycerides” value in the data set on liver lipid metabolism [3] (4 weeks) is listed as 13 mg/dL.
